Tests used:
diabetes in NOD mice = experiment: Alleviation of diabetes in NOD mice (incidence of diabetes, Uristix); format: in vivo; conditions: above 6 mMol glucose/l = diabetes
Procedure: The ability of the lead compound (OdDHL) to alleviate diabetes in NOD mice was determined by treating the mice 3 times per week for 4 weeks at 30 mg/kg as above. DMSO and OHHL were used as controls.
Diabetes was diagnosed using Uristix and a level of above 6 mMol glucose/I was taken to indicate the presence of diabetes.

TNF-alpha production = TNF-alpha production from LPS-stimulated human PBMC; format: cell-based; conditions: LPS 5×10^−5 μg/ml, 100,000 PBMC, 24 h, ELISA
Procedure: Bacterial lipopolysaccharide (LPS) stimulates the production of a variety of cytokines, including TNF-alpha, from human PBMC; these cytokines in turn influence the development of T cells, supporting a T helper 1 conducive milieu. Human PBMC prepared from whole blood by buoyant density centrifugation were resuspended in CTCM. HSL compounds were again tested at similar dilutions as for murine splenocytes in 200 μl of CTCM, containing 5×10^−5 μg/ml LPS Escherichia coli strain 055:B5 (Sigma, Poole, UK) and 100,000 PBMC. Following incubation for 24 h at 37° C. in 5% CO2-air, the cell culture supernatants were collected and tested for TNF-alpha levels by ‘sandwich’ ELISA. Briefly, 96-well Nunc MaxiSorp (Life Technologies, Paisley, UK) plates were coated with 50 μl of a 2 μg/ml solution of mouse anti-human TNF-alpha monoclonal antibody (Pharmingen, UK) in 0.05 M carbonate/bicarbonate buffer, pH 9.6 overnight at 4° C. After washing the plates three times with PBS-Tween, which contained phosphate buffered saline (PBS) with 0.5% (vol/vol) Tween 20 (Sigma, Poole, UK), the plates were blocked with 1% (wt/vol) bovine serum albumin (BSA) (Sigma, Poole, UK) at room temperature for 2 h. […] Following four washes, the bound biotinylated antibody was detected with 50 μl of a 1:1,000 dilution of Streptavidin-peroxidase (Pharmingen, UK). […] The enzyme reaction was stopped with 50 μl of 2.5 M H2SO4 after an incubation of 10 minutes at room temperature and the development was read at 450 nm with a spectrophotometric 96-well plate reader (Dynex). […]
Similar studies were carried out using, as the HSL compounds, N-(12-bromo-3-oxododecanoyl)-L-homoserine lactone (12BrOdDHL) and N-(12-hydroxy-3-oxododecanoyl)-L-homoserine lactone (12hydroxyOdDHL) and the plots for these are shown in FIG. 9. […] The IC50 value for dexamethasone was determined to be 500.
In the cell culture assays the number of cells used (mouse splenocytes and human PBMC) was initially optimised to 100,000 cells per well. The optimal dose of ConA of 1 μg/ml used in the cell proliferation assays was determined from ConA titration curves. […]

[1] = Comparative assay performed in vivo (OdDHL vs CSA and dexamethasone); conditions: compared with CSA and dexamethasone
Text: From this it is believed that a similar result will be achieved for insulitis.

[2] = system: delayed type hypersensitivity response to SRBCs in Balb/c mice; experiment: Murine in vivo DTH response to SRBCs (footweight), oral OdDHL; conditions: Balb/c mice immunised with 5×10^6 SRBCs
Procedure: Eight week old, female Balb/c mice were kept on a 12 hour light/dark cycle and fed food and water ad libitum. SRBCs in Alseviers solution (TCS Biologicals, SB069) were washed and centrifuged (800×g for 20 minutes at room temperature) three times with 0.9% NaCl in distilled water. Cells were counted using a haemocytometer. On day 0 animals were immunised intraperitoneally (IP) with 5×10^6 (low dose) or 5×10^8 (high dose) SRBCs in saline. On day 5, animals were challenged with 20 μl SRBCs at 5×10^9/ml in the left hind paw. The contralateral paw was injected with 20 μl saline alone. After 24 hours the animals were sacrificed with a rising concentration of CO2 and bled by cardiac puncture. The hind feet were severed at the ankle joint and weighed.
Animals were dosed po from day 0 to day 5 with OdDHL. OdDHL was suspended in 0.25% (wt/vol) cellosize (Boots Co. PLC, Nottingham UK) in distilled water containing 1.5% (vol/vol) Tween 80 (Registered Trade Mark, Sigma) for po dosing at 3, 10, 30 and 100 mg/kg. Animals received 0.1 ml po.
This manifests itself as an inflammatory response causing an increase in the size of the foot. Very little antibody is produced. OdDHL at 3, 10, 30 and 100 mg/kg caused a dose dependent increase in footweight of 37%, 60%, 100% and 93% respectively (see FIG. 5). Mice dosed with OdDHL had higher footweights when compared to vehicle dosed animals. The 30 and 100 mg/kg doses (** on graph) are significant as determined by Dunnett's multiple comparison's test after one-way analysis of variance (p<0.01). This assay is considered by the pharmaceutical industry to be […] dependent, indicating the effect of compound treatment on contra-regulating T-helper 1 lymphocytes.

murine spleen cells = conditions: Infection and Immunity, vol.66, no.1, January 1998; cited from earlier work

Question: For `CCCCCCCCCC(=O)CC(=O)N[C@H]1CCOC1=O` [OdDHL, N-(3-oxododecanoyl)-L-homoserine Lactone], which incidence of diabetes (diabetes in NOD mice; Week of Experiment 20, 30 mg/kg 3 times per week for 4 weeks) is on record?
Answer: The incidence of diabetes was 0/11.

Question: And the incidence of diabetes (diabetes in NOD mice; Week of Experiment 30, 30 mg/kg 3 times per week for 4 weeks, week 30 of experiment)?
Answer: The incidence of diabetes was 5/20.

Question: What about the “inhibition of TNF-α secretion (FIG. 8)” value (TNF-alpha production) of the same compound?
Answer: The value was “inhibited the secretion”.

Question: What about the “comparative performance in vivo” value [1] of the same compound?
Answer: The value was “performed better than CSA and dexamethasone”.

Question: And the increase in footweight ([2]; 3 mg/kg po day 0 to day 5, vs vehicle)?
Answer: The increase in footweight was 37%.

Question: And the increase in footweight ([2]; 10 mg/kg po day 0 to day 5, vs vehicle)?
Answer: The increase in footweight was 60%.

Question: What about the increase in footweight ([2]; 30 mg/kg po day 0 to day 5, vs vehicle, p<0.01) of the same compound?
Answer: The increase in footweight was 100%.

Question: And the increase in footweight ([2]; 100 mg/kg po day 0 to day 5, vs vehicle, p<0.01)?
Answer: Its increase in footweight is 93%.

Question: And the “inhibition of concanavalin A mitogen stimulated proliferation of murine spleen cells” value (murine spleen cells)?
Answer: The value was “inhibiting”.
